In experiment [1] the test system is metastatic ccRCC.
Method: Eligible patients were at least 18 years of age and had metastatic ccRCC histologically confirmed, with the presence of measurable disease according to Response Evaluation Criteria in Solid Tumors (RECIST) v1.1.
The primary end point of the study was to evaluate the correlation between plasmatic levels of CXCL5 and CXCL7 and the overall response rate (ORR). The response was evaluated by investigators' assessment.
The secondary end points were to evaluate the correlation between plasmatic levels of CXCL5 and/or CXCL7 and overall survival (OS) and progression-free survival (PFS), censored at last follow-up for those still alive or who have not progressed.
Blood samples were centrifuged and the plasmas were collected and conserved at −80° C. Plasmatic levels of CXCL5 and CXCL7 were determined by ELISA using R&D (reference DY254) and Peprotech kits (reference 900-K40) respectively. Pure plasma or a 1/5 dilution was used for CXCL5 detection and a 1/100 dilution was used to detect CXCL7.
Spearman's correlation was performed between best response rate and quantitative level of chemokine. The CXCL5 and CXCL7 cut-off points (respectively 0.1 and 250 ng/ml) for PFS and OS were determined using smoothing spline curves analysis (R software, version 3.2.2). Kaplan Meier method was used to produce survival curves and analyses of censored data were performed using Cox models. The predictive cut-off points determined in the SUVEGIL cohort were used for the TORAVA cohort.
Experiment [2] relates to metastatic ccRCC. As to the kind of experiment: Combination of SUVEGIL and TORAVA trials (sunitinib): survival versus plasmatic CXCL7. The settings on record: both cohorts combined. The experiment is classed as in vivo, human. As for the experimental part:
(§1) All patients gave written informed consent. The SUVEGIL trial (NCT00943839) was a multicenter prospective single-arm study. […] Patient characteristics and results have been previously described (Negrier et al., 2011).
(§2) The CXCL5 and CXCL7 cut-off points (respectively 0.1 and 250 ng/ml) for PFS and OS were determined using smoothing spline curves analysis (R software, version 3.2.2). […] The predictive cut-off points determined in the SUVEGIL cohort were used for the TORAVA cohort.

Experiment [3] concerns metastatic ccRCC. In words: TORAVA trial (retrospective validation cohort): survival versus plasmatic CXCL5/CXCL7. In kind it is in vivo, human. The note with it: patients with CXCL7 plasma levels below 250 ng/ml. As for the experimental part: as §1, §2
Where [4] appears, read: CXCL7 plasma levels below 250 ng/ml.

Where two headings read alike, the source gives them in different places.

Take `CCN(CC)CCNC(=O)c1c(C)[nH]c(/C=C2\C(=O)Nc3ccc(F)cc32)c1C` [sunitinib]: the “median PFS” value in the experiment on metastatic ccRCC [1] (SUVEGIL prospective cohort, all patients) was 20.1 months; with metastatic ccRCC [1] (patients with CXCL5 plasma levels below 0.1 ng/ml), 14.9 months; in the experiment with metastatic ccRCC [2] (setting [4]), 8.3 months. Moreover, the “median OS” value is recorded as 20.5 months with metastatic ccRCC [1] (patients with CXCL7 plasma levels below 250 ng/ml) and 34.4 months in the experiment on metastatic ccRCC [1] (patients with CXCL7 plasmatic levels above 250 ng/ml, p=0.001). Moreover, the values for the PFS in the experiment on metastatic ccRCC [1] (patients with CXCL7 plasma levels below 250 ng/ml at diagnosis) and with metastatic ccRCC [3] were 15.1 months and 8.6 months, respectively. In addition, the OS in the experiment on metastatic ccRCC [2] (CXCL7 plasma levels above 250 ng/ml, p=0.00025) turned out to be 34.4 months; with metastatic ccRCC [2] (setting [4]), 20.7 months.

The values are drawn from US20190195880A1, “METHODS AND KITS FOR PREDICTING THE SENSITIVITY OF A SUBJECT SUFFERING OF RENAL CANCER TO CANCER TREATMENT” (CENTRE NATIONAL DE LA RECHERCHE SCIENTIFIQUE (CNRS), priority 2016, published 2019).
